Source: patent US9487515B2, “Compounds modulating c-fms and/or c-kit activity and uses therefor” (Plexxikon Inc., priority 2006, dated 2016)

Each molecule was assayed against c-kit (Homo sapiens, UniProt P10721) (assay: c-kit assays of Examples 40 and 41 (AlphaScreen kinase assays at 10 and 100 μM ATP, 33P-ATP filter assay, M-07e SCF-stimulated proliferation and phosphorylation)).
c-kit, sequence (P10721 with tags, fused parts or gaps): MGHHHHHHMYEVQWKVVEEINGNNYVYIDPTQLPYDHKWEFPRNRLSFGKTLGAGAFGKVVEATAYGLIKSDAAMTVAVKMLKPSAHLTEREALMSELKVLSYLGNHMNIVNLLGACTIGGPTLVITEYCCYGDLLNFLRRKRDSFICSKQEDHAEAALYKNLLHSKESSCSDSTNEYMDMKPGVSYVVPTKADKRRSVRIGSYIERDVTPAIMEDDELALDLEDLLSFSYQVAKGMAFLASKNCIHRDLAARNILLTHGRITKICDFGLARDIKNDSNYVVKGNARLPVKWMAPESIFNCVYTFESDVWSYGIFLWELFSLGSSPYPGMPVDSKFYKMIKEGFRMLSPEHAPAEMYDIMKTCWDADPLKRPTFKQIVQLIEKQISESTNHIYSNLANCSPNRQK

Row | IC50 [nM] | Structure (SMILES)
1 | < 1000 | CCOc1ccccc1CNc1ccc(Cc2c[nH]c3ncc(C#N)cc23)cn1 [P-0323, 3-[6-(2-Ethoxy-benzylamino)-pyridin-3-ylmethyl]-1H-pyrrolo[2,3-b]pyridine-5-carbonitrile]
2 | < 1000 | COc1ccccc1CNc1ccc(Cc2c[nH]c3ncc(C#N)cc23)cn1 [P-0337, 3-[6-(2-Methoxy-benzylamino)-pyridin-3-ylmethyl]-1H-pyrrolo[2,3-b]pyridine-5-carbonitrile]
3 | < 1000 | COc1ccc(CNc2ccc(Cc3c[nH]c4ncccc34)cn2)cc1 [P-0004, (4-methoxy-benzyl)-[5-(1H-pyrrolo[2,3-b]pyridin-3-ylmethyl)-pyridin-2-yl]-amine]
4 | < 1000 | COc1ccnc2[nH]cc(Cc3ccc(NCc4ccc(C(F)(F)F)cc4)nc3)c12 [P-0011, [5-(4-Methoxy-1H-pyrrolo[2,3-b]pyridin-3-ylmethyl)-pyridin-2-yl]-(4-trifluoromethyl-benzyl)-amine]
5 | < 1000 | Clc1cnc2[nH]cc(Cc3sc(NCc4ccncc4)nc3Cl)c2c1 [P-0237, [4-Chloro-5-(5-chloro-1H-pyrrolo[2,3-b]pyridin-3-ylmethyl)-thiazol-2-yl]-pyridin-4-ylmethyl-amine]
6 | < 1000 | COc1cccc(CNc2nc(Cl)c(Cc3c[nH]c4ncc(Cl)cc34)s2)c1 [P-0193, [4-Chloro-5-(5-chloro-1H-pyrrolo[2,3-b]pyridin-3-ylmethyl)-thiazol-2-yl]-(3-methoxy-benzyl)-amine]
7 | < 1000 | Fc1ccc(CNc2ncc(Cc3c[nH]c4ncc(Cl)cc34)cn2)c(Cl)c1 [P-0396, (2-Chloro-4-fluoro-benzyl)-[5-(5-chloro-1H-pyrrolo[2,3-b]pyridin-3-ylmethyl)-pyrimidin-2-yl]-amine]
8 | < 1000 | Clc1ccc(CNc2ccc(Cc3c[nH]c4ncccc34)nn2)cc1 [P-0092, (4-Chloro-benzyl)-[6-(1H-pyrrolo[2,3-b]pyridin-3-ylmethyl)-pyridazin-3-yl]-amine]
9 | < 1000 | FC(F)(F)c1ccccc1CNc1ccc(Cc2c[nH]c3ncc(Cl)cc23)cn1 [P-0275, [5-(5-Chloro-1H-pyrrolo[2,3-b]pyridin-3-ylmethyl)-pyridin-2-yl]-(2-trifluoromethyl-benzyl)-amine]
10 | < 1000 | COc1cnc2[nH]cc(Cc3ccc(NCc4ccccc4Cl)nc3)c2c1 [P-0328, (2-Chloro-benzyl)-[5-(5-methoxy-1H-pyrrolo[2,3-b]pyridin-3-ylmethyl)-pyridin-2-yl]-amine]
11 | < 1000 | Fc1ccc(C(F)(F)F)cc1CNc1ccc(Cc2c[nH]c3ncccc23)cn1 [P-0350, (2-Fluoro-5-trifluoromethyl-benzyl)-[5-(1H-pyrrolo[2,3-b]pyridin-3-ylmethyl)-pyridin-2-yl]-amine]
12 | < 1000 | Fc1ccc(Cc2c[nH]c3ncccc23)c(F)n1 [P-0154, 3-(2,6-difluoro-pyridin-3-ylmethyl)-1H-pyrrolo[2,3-b]pyridine]
13 | < 1000 | c1cc(CNc2ccc(Cc3c[nH]c4ncccc34)cn2)cc(N2CCOCC2)c1 [P-0126, (3-Morpholin-4-yl-benzyl)-[5-(1H-pyrrolo[2,3-b]pyridin-3-ylmethyl)-pyridin-2-yl]-amine]
14 | < 1000 | Fc1ccc(CNc2ncc(Cc3c[nH]c4ncccc34)cn2)c(F)c1 [P-0306, (2,4-Difluoro-benzyl)-[5-(1H-pyrrolo[2,3-b]pyridin-3-ylmethyl)-pyrimidin-2-yl]-amine]
15 | < 1000 | FC(F)(F)c1ccc(CNc2ccc(Cc3c[nH]c4ncccc34)c(Cl)n2)cn1 [P-0174, [6-Chloro-5-(1H-pyrrolo[2,3-b]pyridin-3-ylmethyl)-pyridin-2-yl]-(6-trifluoromethyl-pyridin-3-ylmethyl)-amine]
16 | < 1000 | Fc1ccc(CNc2ccc(Cc3c[nH]c4ncccc34)cn2)nc1 [P-0355, (5-Fluoro-pyridin-2-ylmethyl)-[5-(1H-pyrrolo[2,3-b]pyridin-3-ylmethyl)-pyridin-2-yl]-amine]
17 | < 1000 | CC(Nc1ccc(Cc2c[nH]c3ncccc23)cn1)c1ccccc1F (stereo not drawn) [P-0127, [1-(2-Fluoro-phenyl)-ethyl]-[5-(1H-pyrrolo[2,3-b]pyridin-3-ylmethyl)-pyridin-2-yl]-amine]
18 | < 1000 | c1ccc(CCNc2ccc(Cc3c[nH]c4ncccc34)cn2)cc1 [P-0211, Phenethyl-[5-(1H-pyrrolo[2,3-b]pyridin-3-ylmethyl)-pyridin-2-yl]-amine]
19 | < 1000 | O=C(c1ccc(NCc2ccccc2)nc1)c1c[nH]c2ncccc12 [P-0002, (6-Benzylamino-pyridin-3-yl)-(1H-pyrrolo[2,3-b]pyridin-3-yl)-methanone]
20 | < 1000 | Cc1nn(Cc2ccc(C(F)(F)F)o2)c(C)c1Cc1c[nH]c2ncccc12 [P-0138, 3-[3,5-Dimethyl-1-(5-trifluoromethyl-furan-2-ylmethyl)-1H-pyrazol-4-ylmethyl]-1H-pyrrolo[2,3-b]pyridine]
21 | < 1000 | COc1ccc(F)c(CNc2ccc(Cc3c[nH]c4ncccc34)cn2)c1 [P-0371, (2-Fluoro-5-methoxy-benzyl)-[5-(1H-pyrrolo[2,3-b]pyridin-3-ylmethyl)-pyridin-2-yl]-amine]
22 | < 1000 | Cc1nc(-c2ccccc2)sc1Cn1nc(C)c(Cc2c[nH]c3ncccc23)c1C [P-0144, 3-[3,5-Dimethyl-1-(4-methyl-2-phenyl-thiazol-5-ylmethyl)-1H-pyrazol-4-ylmethyl]-1H-pyrrolo[2,3-b]pyridine]
23 | < 1000 | Clc1cnc2[nH]cc(Cc3sc(NCCc4ccccc4)nc3Cl)c2c1 [P-0244, [4-Chloro-5-(5-chloro-1H-pyrrolo[2,3-b]pyridin-3-ylmethyl)-thiazol-2-yl]-phenethyl-amine]
24 | < 1000 | COc1ccc(CNc2ccc(Cc3c[nH]c4ncc(Cl)cc34)c(F)n2)cn1 [P-0379, [5-(5-Chloro-1H-pyrrolo[2,3-b]pyridin-3-ylmethyl)-6-fluoro-pyridin-2-yl]-(6-methoxy-pyridin-3-ylmethyl)-amine]
25 | < 1000 | Fc1cc(C(F)(F)F)ccc1CNc1ncc(Cc2c[nH]c3ncccc23)cn1 [P-0319, (2-Fluoro-4-trifluoromethyl-benzyl)-[5-(1H-pyrrolo[2,3-b]pyridin-3-ylmethyl)-pyrimidin-2-yl]-amine]
26 | < 1000 | Clc1ccc(CNc2ncc(Cc3c[nH]c4ncccc34)cn2)c(Cl)c1 [P-0305, (2,4-Dichloro-benzyl)-[5-(1H-pyrrolo[2,3-b]pyridin-3-ylmethyl)-pyrimidin-2-yl]-amine]
27 | < 1000 | Brc1cnccc1CNc1ccc(Cc2c[nH]c3ncccc23)cn1 [P-0214, (3-Bromo-pyridin-4-ylmethyl)-[5-(1H-pyrrolo[2,3-b]pyridin-3-ylmethyl)-pyridin-2-yl]-amine]
28 | < 1000 | Cc1ccc(F)cc1C(=O)Nc1ccc(Cc2c[nH]c3ncccc23)cn1 [P-0118, 5-Fluoro-2-methyl-N-[5-(1H-pyrrolo[2,3-b]pyridin-3-ylmethyl)-pyridin-2-yl]-benzamide]
29 | < 1000 | Cc1cc(CNc2nc(Cl)c(Cc3c[nH]c4ncccc34)s2)sc1C [P-0208, [4-Chloro-5-(1H-pyrrolo[2,3-b]pyridin-3-ylmethyl)-thiazol-2-yl]-(4,5-dimethyl-thiophen-2-ylmethyl)-amine]
30 | < 1000 | Fc1c(Cl)cccc1CNc1ncc(Cc2c[nH]c3ncccc23)cn1 [P-0311, (3-Chloro-2-fluoro-benzyl)-[5-(1H-pyrrolo[2,3-b]pyridin-3-ylmethyl)-pyrimidin-2-yl]-amine]
